Drawing on PMC6440482 (European journal of pharmacology, 2018), this text covers IC50 for 6 compounds.

One test concerns the target mDAT (Mus musculus, UniProt Q61327). In words: [3H]MPP+ uptake inhibition in transiently transfected mDAT-HEK cells. Format: cell-based.
A further test concerns the target mSERT (Mus musculus, UniProt Q60857). In words: [3H]5-HT uptake inhibition in transiently transfected mSERT-HEK cells. Format: cell-based.
The target in another test is mNET (Mus musculus, UniProt O55192). In words: [3H]MPP+ uptake inhibition in transiently transfected mNET-HEK cells. In kind it is cell-based.
A further test deals with T1, hOCT3 (Homo sapiens, UniProt O75751).
T1 sequence (O75751 1-556): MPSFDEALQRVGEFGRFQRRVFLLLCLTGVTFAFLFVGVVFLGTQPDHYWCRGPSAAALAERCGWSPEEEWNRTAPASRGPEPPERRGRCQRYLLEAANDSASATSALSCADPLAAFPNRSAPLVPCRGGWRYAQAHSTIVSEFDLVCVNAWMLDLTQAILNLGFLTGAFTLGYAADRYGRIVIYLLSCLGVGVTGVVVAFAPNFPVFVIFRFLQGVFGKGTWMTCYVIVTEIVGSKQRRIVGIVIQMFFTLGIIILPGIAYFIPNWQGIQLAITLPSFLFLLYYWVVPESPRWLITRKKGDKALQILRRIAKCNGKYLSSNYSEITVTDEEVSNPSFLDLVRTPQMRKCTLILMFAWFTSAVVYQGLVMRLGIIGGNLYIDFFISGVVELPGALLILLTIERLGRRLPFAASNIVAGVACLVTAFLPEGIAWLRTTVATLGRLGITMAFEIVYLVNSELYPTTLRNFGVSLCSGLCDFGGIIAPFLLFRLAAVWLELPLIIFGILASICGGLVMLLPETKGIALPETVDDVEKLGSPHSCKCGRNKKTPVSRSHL
In words: [3H]MPP+ uptake competition in stable hOCT3-HEK cells. As to conditions: 10 min room temperature. In kind it is cell-based.

The next test has as its target T2, hOCT2 (Homo sapiens, UniProt O15244).
T2 sequence (O15244 1-555): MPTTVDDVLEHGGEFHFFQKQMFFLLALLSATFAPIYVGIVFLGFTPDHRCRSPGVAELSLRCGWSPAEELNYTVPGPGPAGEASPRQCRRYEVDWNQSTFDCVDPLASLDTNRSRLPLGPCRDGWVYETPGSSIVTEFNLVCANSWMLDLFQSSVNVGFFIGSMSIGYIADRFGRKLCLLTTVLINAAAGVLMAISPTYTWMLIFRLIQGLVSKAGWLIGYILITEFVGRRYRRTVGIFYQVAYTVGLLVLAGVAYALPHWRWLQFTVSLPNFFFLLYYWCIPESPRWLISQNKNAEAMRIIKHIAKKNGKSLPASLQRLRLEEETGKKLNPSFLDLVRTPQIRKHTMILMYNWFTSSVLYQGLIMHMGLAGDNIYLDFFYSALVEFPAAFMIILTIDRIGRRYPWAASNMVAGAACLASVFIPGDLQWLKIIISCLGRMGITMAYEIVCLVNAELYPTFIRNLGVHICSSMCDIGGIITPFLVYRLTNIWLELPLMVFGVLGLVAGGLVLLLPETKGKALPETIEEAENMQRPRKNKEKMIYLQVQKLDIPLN
In words: [3H]MPP+ uptake competition in stable hOCT2-HEK cells. The following applies: 10 min room temperature. Format: cell-based.

Another test deals with T3, hPMAT (Homo sapiens, UniProt Q7RTT9).
T3 sequence (Q7RTT9 1-530): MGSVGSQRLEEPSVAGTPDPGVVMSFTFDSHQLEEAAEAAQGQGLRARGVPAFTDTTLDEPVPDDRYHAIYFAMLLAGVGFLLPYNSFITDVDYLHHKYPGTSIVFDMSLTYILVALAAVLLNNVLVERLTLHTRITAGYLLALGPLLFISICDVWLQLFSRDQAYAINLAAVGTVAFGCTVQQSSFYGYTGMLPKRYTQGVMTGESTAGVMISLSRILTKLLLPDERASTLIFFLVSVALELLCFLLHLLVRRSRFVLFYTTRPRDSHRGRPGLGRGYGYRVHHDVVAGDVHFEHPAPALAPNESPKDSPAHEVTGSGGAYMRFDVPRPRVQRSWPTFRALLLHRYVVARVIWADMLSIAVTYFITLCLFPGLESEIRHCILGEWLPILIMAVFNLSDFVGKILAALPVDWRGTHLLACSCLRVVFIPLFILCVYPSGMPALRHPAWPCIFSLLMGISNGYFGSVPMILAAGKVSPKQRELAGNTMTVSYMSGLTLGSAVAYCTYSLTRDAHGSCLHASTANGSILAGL
In words: [3H]MPP+ uptake competition in stable hPMAT-HEK cells. In kind it is cell-based.

A further test addresses DAT (Mus musculus, UniProt Q61327). In words: [3H]WIN 35428 binding displacement in mouse striatum homogenate.
[1] abbreviates: read-out: hOCT3-HEK IC50, 10 nM [3H]MPP+ uptake.
[2] abbreviates: read-out: hOCT2-HEK IC50, 10 nM [3H]MPP+ uptake.
[3] abbreviates: read-out: DAT [3H]WIN 35428 IC50, mouse striatum homogenate, 4 nM [3H]WIN 35428, 60 min.
Setting [4] is: read-out: hPMAT-HEK IC50, 10 nM [3H]MPP+ uptake, 10 min room temperature.

SMILES strings stand for the structures. “And” between values parts separate entries of the source, which are not always exact repeats. Equal values may be shown once. Read-outs that look alike come from different tables or passages of the source.

mNET, sequence (O55192 whole entry): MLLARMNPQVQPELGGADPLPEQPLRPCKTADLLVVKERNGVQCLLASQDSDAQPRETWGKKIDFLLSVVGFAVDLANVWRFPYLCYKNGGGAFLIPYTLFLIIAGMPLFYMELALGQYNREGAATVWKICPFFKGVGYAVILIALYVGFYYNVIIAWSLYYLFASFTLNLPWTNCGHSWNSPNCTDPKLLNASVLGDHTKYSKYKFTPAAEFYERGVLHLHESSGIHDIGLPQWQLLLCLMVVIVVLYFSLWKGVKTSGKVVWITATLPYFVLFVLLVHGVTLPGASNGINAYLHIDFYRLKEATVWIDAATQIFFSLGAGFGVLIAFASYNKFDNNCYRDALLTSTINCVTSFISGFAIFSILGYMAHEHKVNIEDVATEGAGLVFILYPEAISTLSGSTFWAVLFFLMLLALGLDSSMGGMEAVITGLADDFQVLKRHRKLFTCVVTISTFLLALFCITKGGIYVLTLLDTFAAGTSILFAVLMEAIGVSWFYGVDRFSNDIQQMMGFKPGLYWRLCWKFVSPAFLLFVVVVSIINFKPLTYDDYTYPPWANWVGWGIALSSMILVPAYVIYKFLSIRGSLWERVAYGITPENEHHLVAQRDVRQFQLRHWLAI
DAT, sequence (Q61327 whole entry): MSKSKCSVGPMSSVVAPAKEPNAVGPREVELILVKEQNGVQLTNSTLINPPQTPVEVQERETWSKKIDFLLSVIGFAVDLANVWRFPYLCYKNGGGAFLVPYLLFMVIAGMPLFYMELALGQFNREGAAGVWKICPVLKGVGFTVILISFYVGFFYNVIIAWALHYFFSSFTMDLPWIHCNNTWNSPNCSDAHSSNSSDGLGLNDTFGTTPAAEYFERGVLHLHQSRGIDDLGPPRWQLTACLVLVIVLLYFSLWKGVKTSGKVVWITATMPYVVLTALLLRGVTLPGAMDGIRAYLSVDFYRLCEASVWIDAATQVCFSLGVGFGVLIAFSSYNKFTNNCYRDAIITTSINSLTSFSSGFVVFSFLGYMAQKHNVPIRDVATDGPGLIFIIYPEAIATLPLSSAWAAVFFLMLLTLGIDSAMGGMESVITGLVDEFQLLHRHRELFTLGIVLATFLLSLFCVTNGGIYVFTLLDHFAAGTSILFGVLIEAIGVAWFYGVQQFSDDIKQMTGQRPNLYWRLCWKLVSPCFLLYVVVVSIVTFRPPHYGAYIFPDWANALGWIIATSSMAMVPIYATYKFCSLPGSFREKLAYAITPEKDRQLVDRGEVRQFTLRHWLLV
mDAT, sequence (Q61327 whole entry): as above
mSERT, sequence (Q60857 whole entry): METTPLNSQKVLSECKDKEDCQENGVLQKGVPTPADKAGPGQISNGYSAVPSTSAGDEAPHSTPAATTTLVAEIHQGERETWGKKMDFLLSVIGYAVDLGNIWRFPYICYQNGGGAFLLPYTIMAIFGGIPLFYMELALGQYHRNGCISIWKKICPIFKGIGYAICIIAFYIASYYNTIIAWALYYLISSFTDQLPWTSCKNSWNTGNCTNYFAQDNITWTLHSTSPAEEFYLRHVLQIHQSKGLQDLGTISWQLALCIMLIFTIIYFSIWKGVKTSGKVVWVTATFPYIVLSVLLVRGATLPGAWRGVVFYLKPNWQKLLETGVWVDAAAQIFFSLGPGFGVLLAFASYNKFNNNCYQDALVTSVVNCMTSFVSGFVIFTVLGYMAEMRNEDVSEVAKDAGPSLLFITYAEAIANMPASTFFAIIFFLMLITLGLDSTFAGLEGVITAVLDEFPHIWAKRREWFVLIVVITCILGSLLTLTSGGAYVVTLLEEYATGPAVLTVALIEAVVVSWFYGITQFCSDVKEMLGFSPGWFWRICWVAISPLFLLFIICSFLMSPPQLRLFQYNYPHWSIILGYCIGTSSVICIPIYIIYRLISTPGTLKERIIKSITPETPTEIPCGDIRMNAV

What is called IC50 is the concentration at which inhibition is half-maximal. For the compound `COC(=O)[C@H]1[C@@H](OC(=O)c2ccccc2)C[C@@H]2CC[C@H]1N2C` [Cocaine], the concentration for half-maximal inhibition (IC50) against mDAT (mDAT-HEK IC50, 20 nM [3H]MPP+ uptake, 3 min) was 0.18 µM; at mSERT (mSERT-HEK IC50, 100 nM [3H]5-HT uptake, 1 min), 0.5 µM and 0.51 µM; against mNET (mNET-HEK IC50, 20 nM [3H]MPP+ uptake, 3 min), 1.2 µM and 1.18 µM.
Consider `C[C@]12C[C@H](O)[C@H]3[C@@H](CCC4=CC(=O)CC[C@@]43C)[C@@H]1CC[C@@H]2C(=O)CO` [Corticosterone], for which the IC50 on hOCT3 (hOCT3-HEK IC50, 10 nM [3H]MPP+ uptake) was 0.6 µM and 0.62 µM; on mDAT it was 364 µM and 365 µM; at hOCT2 (hOCT2-HEK IC50, 10 nM [3H]MPP+ uptake), 79.6 µM; against mSERT, 445 µM; against mNET, 840 µM; on hPMAT, 1060 µM.
For the compound `CCN1C(=Cc2ccc3ccccc3[n+]2CC)C=Cc2ccccc21` [Decynium 22, 1,1’-diethyl-2,2’-cyanine], the 50% inhibitory concentration (IC50) on hOCT3 (setting [1]) worked out at 0.2 µM; on mDAT (read-out: mDAT-HEK IC50, 20 nM [3H]MPP+ uptake, 3 min), 12.9 µM; at hOCT2 (setting [2]) it was 10 µM; on DAT (setting [3]) it was 10.8 µM; on mSERT (read-out: mSERT-HEK IC50, 100 nM [3H]5-HT uptake, 1 min), 7.9 µM; at mSERT (read-out: mSERT-HEK IC50, 100 nM [3H]5-HT uptake, 1 min, listed as D22), 8 µM. The IC50 on mNET (read-out: mNET-HEK IC50, 20 nM [3H]MPP+ uptake, 3 min) was 35 µM; on hPMAT (setting [4]), 1.1 µM.
In turn, `NCCc1ccc(O)c(O)c1` [Dopamine] had an IC50 on DAT of 99.8 µM.
For `C[n+]1ccc(-c2ccccc2)cc1` [MPP^+, 1-methyl-4-phenylpyridinium], the IC50 on hOCT3 (setting [1]) was 91 µM; on hOCT2 (setting [2]), 110 µM; on hPMAT (setting [4]), 1040 µM.
Turning to `COC(=O)[C@H]1[C@@H](c2ccc(F)cc2)C[C@@H]2CC[C@H]1N2C` [WIN 35428], the half-maximal inhibitory concentration (IC50) at DAT (setting [3]) came out at 0.06 µM.
